Earlier results as cited in US20170312269A1, “COMPOSITIONS AND METHODS FOR REDUCING FOOD CRAVINGS” (OREXIGEN THERAPEUTICS, INC., priority 2005, published 2017).

Details: in vivo; cited from earlier work

SMILES: CNCCC(Oc1ccc(C(F)(F)F)cc1)c1ccccc1 (stereo not shown) [fluoxetine]
- physiological half life: about 9 hours
